pIC50, pKi: −log10 of the molar value.

Common to all, as to format: cell-based
The target in test [1] is T1, Small conductance calcium-activated potassium channel protein 2 (Homo sapiens, UniProt Q9H2S1). In words: Displacement of [125I]-apamin from cloned SK2 channel expressed in human HEK293 cells after 1 hr by liquid scintillation counting. On the technique in general: Displacement assays read how much labelled ligand stays bound in the presence of the test substance.
The target in test [2] is T2, Small conductance calcium-activated potassium channel protein 3 (Homo sapiens, UniProt Q9UGI6). The experiment in a line: Displacement of [125I]-apamin from cloned SK3 channel expressed in human HEK293 cells after 1 hr by liquid scintillation counting.
Test [3] concerns the target T1, Small conductance calcium-activated potassium channel protein 2. In words: Inhibition of cloned SK2 channel expressed in human HEK293 cells at 10 uM.
Test [4] concerns the target Small conductance calcium-activated potassium channel protein 2 (Rattus norvegicus, UniProt P70604). In words: Inhibition of cloned rat SK2 channel expressed in human HEK293 cells by patch clamp assay in the presence of 1 uM intracellular Ca2+. For orientation: Patch clamp records ionic current or voltage across a cell membrane.
Test [5] addresses T2, Small conductance calcium-activated potassium channel protein 3. In words: Inhibition of cloned human SK3 channel expressed in human HEK293 cells by patch clamp assay in the presence of 1 uM intracellular Ca2+.

T2 sequence (Q9UGI6 whole entry): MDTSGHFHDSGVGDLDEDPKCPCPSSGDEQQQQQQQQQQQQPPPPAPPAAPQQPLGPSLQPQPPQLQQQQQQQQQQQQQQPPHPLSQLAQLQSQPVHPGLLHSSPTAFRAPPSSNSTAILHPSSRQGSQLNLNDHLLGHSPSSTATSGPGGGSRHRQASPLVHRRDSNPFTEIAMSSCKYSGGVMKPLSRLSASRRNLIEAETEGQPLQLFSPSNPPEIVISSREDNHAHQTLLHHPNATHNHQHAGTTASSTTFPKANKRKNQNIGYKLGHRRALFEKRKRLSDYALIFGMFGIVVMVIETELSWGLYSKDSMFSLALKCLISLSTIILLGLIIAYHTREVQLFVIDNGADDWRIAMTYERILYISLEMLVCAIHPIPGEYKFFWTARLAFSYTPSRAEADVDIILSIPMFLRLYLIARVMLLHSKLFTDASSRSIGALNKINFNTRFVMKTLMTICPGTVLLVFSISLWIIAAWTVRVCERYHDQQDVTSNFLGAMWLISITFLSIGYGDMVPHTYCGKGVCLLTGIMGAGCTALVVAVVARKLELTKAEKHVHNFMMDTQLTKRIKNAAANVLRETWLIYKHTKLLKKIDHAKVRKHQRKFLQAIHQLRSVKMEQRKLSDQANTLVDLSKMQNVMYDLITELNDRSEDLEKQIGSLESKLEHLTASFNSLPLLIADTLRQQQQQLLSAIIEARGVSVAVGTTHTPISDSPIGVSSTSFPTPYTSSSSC
T1 sequence (Q9H2S1 whole entry): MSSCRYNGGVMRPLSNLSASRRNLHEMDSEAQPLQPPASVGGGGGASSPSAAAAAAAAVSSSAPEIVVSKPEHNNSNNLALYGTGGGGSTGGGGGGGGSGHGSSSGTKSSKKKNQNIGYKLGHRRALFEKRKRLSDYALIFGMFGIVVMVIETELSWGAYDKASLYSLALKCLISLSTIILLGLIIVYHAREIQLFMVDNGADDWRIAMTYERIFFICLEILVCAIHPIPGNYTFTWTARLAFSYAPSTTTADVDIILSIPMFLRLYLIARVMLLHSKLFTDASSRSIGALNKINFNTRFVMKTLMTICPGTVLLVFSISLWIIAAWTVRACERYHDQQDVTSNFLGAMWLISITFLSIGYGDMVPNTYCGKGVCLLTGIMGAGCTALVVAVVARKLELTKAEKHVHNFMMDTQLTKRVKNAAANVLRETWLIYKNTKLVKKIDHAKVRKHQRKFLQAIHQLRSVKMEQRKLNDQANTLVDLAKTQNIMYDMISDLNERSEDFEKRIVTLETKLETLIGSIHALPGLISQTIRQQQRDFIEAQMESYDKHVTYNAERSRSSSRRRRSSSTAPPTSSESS
Sequence of Small conductance calcium-activated potassium channel protein 2 (Rattus norvegicus, UniProt P70604) (P70604 whole entry): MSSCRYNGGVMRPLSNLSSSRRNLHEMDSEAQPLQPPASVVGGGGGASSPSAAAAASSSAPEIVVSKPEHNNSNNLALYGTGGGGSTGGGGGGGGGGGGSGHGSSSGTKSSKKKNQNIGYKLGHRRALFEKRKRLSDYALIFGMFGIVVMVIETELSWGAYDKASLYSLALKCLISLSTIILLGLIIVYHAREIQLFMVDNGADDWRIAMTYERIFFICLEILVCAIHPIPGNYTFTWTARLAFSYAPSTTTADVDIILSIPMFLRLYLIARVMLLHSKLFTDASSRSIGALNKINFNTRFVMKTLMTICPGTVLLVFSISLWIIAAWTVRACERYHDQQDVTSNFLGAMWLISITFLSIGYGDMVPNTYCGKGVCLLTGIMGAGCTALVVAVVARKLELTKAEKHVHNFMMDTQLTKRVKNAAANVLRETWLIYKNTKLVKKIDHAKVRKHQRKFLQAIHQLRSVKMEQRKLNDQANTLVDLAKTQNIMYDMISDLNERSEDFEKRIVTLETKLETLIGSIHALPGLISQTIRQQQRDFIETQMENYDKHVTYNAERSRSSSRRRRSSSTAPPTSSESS

For `CC(C)c1cccc2cc[n+](C)c(CCCc3c4c(C(C)C)cccc4cc[n+]3C)c12`, the figures for the pKi in test [1] and in test [2] were 6.23 and 6.08, respectively. On to `CC(C)c1cccc2c1C(CCCCC1c3c(cccc3C(C)C)CCN1C)N(C)CC2` (racemic), for which, in test [3], the inhibition came out at 41%.

For the compound `CC(C)c1cccc2cc[n+](C)c(CCCCc3c4c(C(C)C)cccc4cc[n+]3C)c12`, the pKi in test [1] was 6.71; in test [2] it was 6.67. On to `CC(C)c1cccc2cc[n+](C)c(Cc3ccc(Cc4c5c(C(C)C)cccc5cc[n+]4C)cc3)c12`, for which the pKi in test [1] was 6.40; in test [2], 5.90. Take `CC(C)c1cccc2c1C(Cc1ccc(CC3c4c(cccc4C(C)C)CCN3C)cc1)N(C)CC2` (racemic): in test [3], the inhibition came out at 41%.

In the case of `CC(C)c1cccc2c1C(Cc1cccc(CC3c4c(cccc4C(C)C)CCN3C)c1)N(C)CC2` (racemic), the inhibition in test [3] came to 41%.

For `CC(C)c1cccc2cc[n+](C)c(CCCCCc3c4c(C(C)C)cccc4cc[n+]3C)c12`, the figures for the pKi in test [1] and in test [2] were 6.06 and 6.24, respectively. Regarding `CC(C)c1cccc2cc[n+](C)c(Cc3cccc(Cc4c5c(C(C)C)cccc5cc[n+]4C)c3)c12`, the pKi in test [1] was 7.05; in test [2], 7.34. The pIC50 in test [4] was 5.80; in test [5], 5.53. Take `CC(C)c1cccc2c1C(CCCCCC1c3c(cccc3C(C)C)CCN1C)N(C)CC2` (racemic): in test [3], the inhibition turned out to be 41%.

`CC(C)c1cccc2c1C(CCCC1c3c(cccc3C(C)C)CCN1C)N(C)CC2` (racemic): in test [3], the inhibition was determined as 41%.

What is called pKi is the Ki on a negative log10 scale, so that one unit is a factor of ten. What is called inhibition is the relative decrease from the control value, in per cent. By pIC50 is commonly meant −log10 of the IC50, conventionally taken in molar units.

Source of the values: ChEMBL document CHEMBL1909607, “Synthesis and radioligand binding studies of bis-(8-isopropyl-isoquinolinium) derivatives as ligands for apamin-sensitive sites on cloned SK2 and SK3 channels” (Bioorg Med Chem Lett, 2011).
